Drawing on ChEMBL document CHEMBL5532762, “Potential of covalently linked tamoxifen hybrids for cancer treatment: recent update” (RSC Med Chem, 2024), this text covers IC50, GI50 and solubility for 12 compounds.

Bounds are passed on as bounds.

The subject of data set [1] is MCF7. Put plainly: Antiproliferative activity against human MCF7 cells assessed as reduction in cell viability measured after 72 hrs by MTT assay. The conditions noted are these: MCF7, 72 h. The data set is classed as functional, cell-based. (In general: Formazan colour is commonly taken as a measure of viable cells.)
Data set [2] relates to MDA-MB-231. Put plainly: Growth inhibition of human MDA-MB-231 cells measured after 48 hrs by SRB assay. The data set is classed as functional. A general note: The SRB assay estimates cell density from bound dye.
Data set [3] relates to SiHa. Put plainly: Growth inhibition of human SiHa cells measured after 48 hrs by SRB assay. The data set is classed as functional.
Data set [4] can be described thus: Aqueous solubility of the compound. The data set is classed as physicochemical. The conditions noted are these: water (aqueous).
Data set [5] concerns MCF7. Put plainly: Antiproliferative activity against human MCF7 cells assessed as reduction in cell growth incubated for 24 hrs by MTT assay. The following applies: MCF7, 24 h.
For data set [6], the system named is MDA-MB-231. Put plainly: Antiproliferative activity against human MDA-MB-231 cells assessed as reduction in cell growth incubated for 24 hrs by MTT assay. The conditions noted are these: MDA-MB-231, 24 h.
In data set [7] the test system is MCF7. In words: Antiproliferative activity against human MCF7 cells assessed as reduction in cell growth measured after 72 hrs by alamar blue analysis. The conditions noted are these: MCF7, 72 h. For orientation: Resazurin is reduced to fluorescent resorufin, in cell work by metabolically active cells.
The target in data set [8] is Estrogen receptor beta (Homo sapiens, UniProt Q92731). Put plainly: Inhibition of ERbeta (unknown origin) by renilla luciferase assay.
Sequence of Estrogen receptor beta (Q92731 whole entry): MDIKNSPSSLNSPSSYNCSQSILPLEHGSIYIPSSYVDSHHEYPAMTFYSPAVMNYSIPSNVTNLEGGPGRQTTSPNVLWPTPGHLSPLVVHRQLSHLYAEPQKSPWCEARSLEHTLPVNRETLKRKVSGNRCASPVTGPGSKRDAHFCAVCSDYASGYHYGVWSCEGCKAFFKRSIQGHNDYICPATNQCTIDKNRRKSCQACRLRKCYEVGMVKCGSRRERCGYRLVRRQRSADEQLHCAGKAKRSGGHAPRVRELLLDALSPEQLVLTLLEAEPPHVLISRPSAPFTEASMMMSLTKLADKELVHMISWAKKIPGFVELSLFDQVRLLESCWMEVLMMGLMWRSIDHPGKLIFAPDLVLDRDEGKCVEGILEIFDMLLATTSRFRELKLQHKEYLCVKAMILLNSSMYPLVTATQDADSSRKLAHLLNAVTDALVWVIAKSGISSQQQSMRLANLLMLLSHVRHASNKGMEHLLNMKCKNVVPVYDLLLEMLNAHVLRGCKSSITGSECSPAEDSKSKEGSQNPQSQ
For data set [9], the system named is MCF7. In words: Antiproliferative activity against human MCF7 cells assessed as cell growth inhibition incubated for 72 hrs by MTT assay. The following applies: MCF7, 72 h.

On to `CC/C(=C(\c1ccccc1)c1ccc(OCCN(C)CCCCCC(=O)NCCc2c[nH]c3ccc(OC)cc23)cc1)c1ccccc1`, for which the IC50 (usually the concentration needed to halve the response being measured) in data set [1] was determined as 80 µM. Same read-out and setting: next, `CC/C(=C(\c1ccccc1)c1ccc(OCCN(C)CCCCC(=O)NCCc2c[nH]c3ccc(OC)cc23)cc1)c1ccccc1`: 4 µM. For the compound `c1ccc(/C(Cn2cncn2)=C(/c2ccccc2)c2ccc(OCCN3CCN(c4ccc5c(c4)OCO5)CC3)cc2)cc1`, in data set [2], it took 230 nM to inhibit growth by half (GI50). `c1ccc(/C(Cn2cncn2)=C(/c2ccccc2)c2ccc(OCCN3CCN(c4ncccn4)CC3)cc2)cc1`: in data set [3], the GI50 – broadly, the concentration at which growth is held to half of that of the control – stood at 120 nM. That is a sub-micromolar value. Consider `CC/C(=C(/c1ccc(OCCN(C)C)cc1)c1ccc(OC(=O)N(C)CCN(C)C(=O)OCc2cc(OC)c(OCC(=O)NCCN)cc2[N+](=O)[O-])cc1)c1ccccc1`, for which, in [4], the solubility (usually the dissolved amount per volume that the medium holds) was at least 20 µg/mL. On to `CCC(=C(c1ccc(O)cc1)c1ccc(OCCN(C)C(=O)/C(=C/c2ccc(OC)c(O)c2)c2cc(OC)c(OC)c(OC)c2)cc1)c1ccc(O)cc1`, for which the IC50 worked out at 5 nM in data set [5] and 2480 nM in data set [6]. `COc1cc(COc2ccc(/C(=C(\C)c3ccccc3)c3ccc(OCCN(C)C)cc3)cc2)c([N+](=O)[O-])cc1OCC(=O)NCCN` displayed a solubility in data set [4] of at least 20 µg/mL. For the compound `CC/C(=C(\c1ccc(O)cc1)c1ccc(OCCN(C)C(=O)CCC(=O)Oc2cc(/C=C\c3cc(OC)c(OC)c(OC)c3)ccc2OC)cc1)c1ccccc1`, the IC50 in [7] worked out at 5.7 nM. In [8], `CCC(=C(c1ccc(O)cc1)c1ccc(OCCNCCCCCCNC(=O)CCCCCNC(=O)CSc2c(Cl)c(Cl)c(C(=O)O)c(C3=c4cc5c(c(S(=O)(=O)O)c4Oc4c3cc3c(c4S(=O)(=O)O)NC(C)(C)CC3C)=NC(C)(C)CC5C)c2Cl)cc1)c1ccccc1` (centres undefined) had an IC50 of 240 µM. Consider `COc1ccc(/C=C\c2cc(OC)c(OC)c(OC)c2)cc1O` [COMBRETASTATIN A4], for which, in data set [5], the IC50 was found to be 8 nM.

In the case of `CC/C(=C(\c1ccc(O)cc1)c1ccc(OCCNC)cc1)c1ccccc1` [ENDOXIFEN], the IC50 in data set [5] came to 29 nM. In the case of `CC/C(=C(\c1ccccc1)c1ccc(OCCN(C)C)cc1)c1ccccc1` [TAMOXIFEN], halving of growth in data set [2] (GI50) required 240 nM. Moreover, the half-maximal inhibitory concentration (IC50) in data set [9] was 12.6 µM.
